From article PMC6738068 (British Journal of Cancer, 2019)
“Also recorded” adds a separate entry of the source. Like-named read-outs stand apart in the source and are kept apart here.

Key:
[1] = Plasma pharmacokinetics in phase 1 patients; type: in vivo, human
Description: In the expansion cohort, blood samples were collected on Day 1 for Cycle 0 and Day 28 of Cycle 1. Additional samples were drawn prior to dosing on Day 15 of subsequent cycles.
Samples were analysed in accordance with all applicable United States Federal Drug Administration (FDA) and Organisation for Economic Co-operation and Development (OECD) regulations. […] After evaporation of the extraction solvent, sample extracts were reconstituted and analysed by reversed-phase high-performance liquid chromatography using a Waters Atlantis dC18 column. The mobile phase was nebulised using heated nitrogen in a Z-spray source/interface set to electrospray positive ionisation. The ionised compounds were detected using mass spectrometry. The lower limit of quantification was 20 pg/ml. Samples were analysed at Microconstants, San Diego, CA.

[2] = system: patients with advanced solid tumours
Description: A standard 3+3 dose-escalation scheme was used to identify the maximally tolerated dose (MTD) and RP2D.
Patients without evidence of high-grade neutropenia during this run-in period resumed daily dosing in standard 28-day cycles.
Select haematologic DLT included febrile neutropenia grade ≥3 and/or neutropenia grade ≥3 associated with infection or asymptomatic neutropenia grade ≥3 that persisted for >7 days. Use of haematopoietic growth factors (e.g. G-CSF, erythropoietin) in Cycle 1 was not permitted unless a DLT occurred.
The RP2D was based on the MTD established during dose escalation together with a comprehensive review of toxicities, PKs, and efficacy outcomes.
Dose escalations occurred in 100% increments for individual dosing cohorts up to 32 mg/day. Subsequent dose escalations continued in increments not exceeding 50%, depending on toxicities experienced, and with the approval of local Investigators and the external Medical Monitor.
Hematologic DLTs were defined as drug-related anemia grade ≥3; febrile neutropenia grade ≥3, and/or neutropenia grade ≥3 associated with infection; asymptomatic neutropenia grade ≥3 that persisted for >7 days; asymptomatic thrombocytopenia grade ≥3 that persisted for >7 days following treatment interruption; grade 3 thrombocytopenia associated with bleeding; or grade 4 thrombocytopenia.
Dose escalation decisions were made following the completion of Cycle 1 for all patients enrolled in a given dose level, taking into consideration adverse events (AE) and pharmacokinetic results.

TrkA = system: TrkA; parameters: method as in printed; conditions: preclinical, ref not given; cited from earlier work
FGFR1 = system: FGFR1; parameters: method as in printed; conditions: preclinical, ref not given; cited from earlier work
Tie2 = system: Tie2; parameters: method as in printed; conditions: preclinical, ref not given; cited from earlier work
Ros = system: Ros; parameters: method as in printed; conditions: preclinical, ref not given; cited from earlier work
CYP1A2 = system: CYP1A2; parameters: method as in printed; conditions: preclinical testing, ref not given; cited from earlier work
P-glycoprotein = system: P-glycoprotein; parameters: method as in printed; conditions: preclinical testing, ref not given; cited from earlier work
BCRP = system: BCRP; parameters: method as in printed; conditions: preclinical testing, ref not given; cited from earlier work
OATP1B3 = system: OATP1B3; parameters: method as in printed; conditions: preclinical testing, ref not given; cited from earlier work
rodents = system: rodents; parameters: method as in printed; conditions: toxicology studies, ref not given; cited from earlier work
dogs = system: dogs; parameters: method as in printed; conditions: toxicology studies, ref not given; cited from earlier work
[3] = oral daily 72 mg (n = 6; one patient removed, not DLT evaluable)

Question: What does the source list for `COc1ccc2c(c1)[C@]1(C[C@H]1c1ccc3c(/C=C/c4ccc(CN5C[C@@H](C)O[C@@H](C)C5)cc4)n[nH]c3c1)C(=O)N2` [CFI-400945]?
Answer: dose proportionality of exposure ([1]; 3-96 mg): generally dose proportional; exposure at Day 28 higher than exposure at Day 1, average ([1]; across all dose levels): 37%; AUC(0-t) ([1]; human, plasma, oral, 64 mg, Day 1, read-out: AUC0–24 h): 428 ng·h/mL; Cmax ([1]; human, plasma, oral, 64 mg, Day 1, read-out: average Cmax): 37 ng/mL; AUC(0-t) ([1]; human, plasma, oral, 64 mg, after 28 days of dosing, read-out: AUC0–24 h): 564 ng·h/mL; Cmax ([1]; human, plasma, oral, 64 mg, after 28 days of dosing, read-out: average Cmax): 44 ng/mL; AUC(0-t) ([1]; human, plasma, oral, Day 1, read-out: AUC0–24 h values associated with grade 3/4 neutropenia): > 400 ng·h/mL; Cmax ([1]; human, plasma, oral, Day 1, read-out: Cmax values associated with grade 3/4 neutropenia): ≥ 38 ng/mL; half-life ([1]; human, plasma, oral, 64 mg, Day 1, read-out: half-life (t1/2) (converted)): 9 h; time to maximum plasma concentration (Cmax) after dosing ([1]; oral, fasting state): 2 to 4 h; DLT events ([2]; 64 mg dose escalation, 6 patients): no DLT events; patients with a DLT event ([2]; 64 mg dose level, escalation plus expansion): 1/15; DLT event in dose expansion ([2]; 64 mg expansion, Cycle 1 Day 15): One patient experienced grade 4 febrile neutropenia; tolerability ([2]; 64 mg, continuous daily dosing): well tolerated; also recorded: tolerable; DLT events ([2]; 72 mg (7 total), Cycle 1): Two patients experienced DLT events; tolerability ([2]; 96 mg daily): intolerable; DLT events ([2]; 96 mg, Cycle 1): one DLT (grade 3 febrile neutropenia); Total number of patients with DLT, all dosages ([2]; 3-96 mg (n = 48)): 4; DLT description, grade 3 ([2]; all dose levels (n = 48)): Neutropenia, febrile neutropenia; DLT description, grade 4 ([2]; all dose levels (n = 48)): Febrile neutropenia, lipase elevated; recommended phase 2 dose (RP2D) ([2]; continuous daily oral dosing): 64 mg; principal DLT ([2]; continuous dosing schedule): Neutropenia; Total number of patients with DLT at each dosage ([2]; oral daily 3 mg (n = 3)): 0; patients with DLT, grade 1 ([2]; oral daily 3 mg (n = 3)): 0; patients with DLT, grade 2 ([2]; oral daily 3 mg (n = 3)): 0; patients with DLT, grade 3, number (%) ([2]; oral daily 3 mg (n = 3)): 0; patients with DLT, grade 4, number (%) ([2]; oral daily 3 mg (n = 3)): 0; patients with DLT, grade 5 ([2]; oral daily 3 mg (n = 3)): 0; Total number of patients with DLT at each dosage ([2]; oral daily 6 mg (n = 3)): 0; patients with DLT, grade 1 ([2]; oral daily 6 mg (n = 3)): 0; patients with DLT, grade 2 ([2]; oral daily 6 mg (n = 3)): 0; patients with DLT, grade 3, number (%) ([2]; oral daily 6 mg (n = 3)): 0; patients with DLT, grade 4, number (%) ([2]; oral daily 6 mg (n = 3)): 0; patients with DLT, grade 5 ([2]; oral daily 6 mg (n = 3)): 0; Total number of patients with DLT at each dosage ([2]; oral daily 11 mg (n = 3)): 0; patients with DLT, grade 1 ([2]; oral daily 11 mg (n = 3)): 0; patients with DLT, grade 2 ([2]; oral daily 11 mg (n = 3)): 0; patients with DLT, grade 3, number (%) ([2]; oral daily 11 mg (n = 3)): 0; patients with DLT, grade 4, number (%) ([2]; oral daily 11 mg (n = 3)): 0; patients with DLT, grade 5 ([2]; oral daily 11 mg (n = 3)): 0; Total number of patients with DLT at each dosage ([2]; oral daily 16 mg (n = 3)): 0; patients with DLT, grade 1 ([2]; oral daily 16 mg (n = 3)): 0; patients with DLT, grade 2 ([2]; oral daily 16 mg (n = 3)): 0; patients with DLT, grade 3, number (%) ([2]; oral daily 16 mg (n = 3)): 0; patients with DLT, grade 4, number (%) ([2]; oral daily 16 mg (n = 3)): 0; patients with DLT, grade 5 ([2]; oral daily 16 mg (n = 3)): 0; Total number of patients with DLT at each dosage ([2]; oral daily 24 mg (n = 3)): 0; patients with DLT, grade 1 ([2]; oral daily 24 mg (n = 3)): 0; patients with DLT, grade 2 ([2]; oral daily 24 mg (n = 3)): 0; patients with DLT, grade 3, number (%) ([2]; oral daily 24 mg (n = 3)): 0; patients with DLT, grade 4, number (%) ([2]; oral daily 24 mg (n = 3)): 0; patients with DLT, grade 5 ([2]; oral daily 24 mg (n = 3)): 0; Total number of patients with DLT at each dosage ([2]; oral daily 32 mg (n = 3)): 0; patients with DLT, grade 1 ([2]; oral daily 32 mg (n = 3)): 0; patients with DLT, grade 2 ([2]; oral daily 32 mg (n = 3)): 0; patients with DLT, grade 3, number (%) ([2]; oral daily 32 mg (n = 3)): 0; patients with DLT, grade 4, number (%) ([2]; oral daily 32 mg (n = 3)): 0; patients with DLT, grade 5 ([2]; oral daily 32 mg (n = 3)): 0; Total number of patients with DLT at each dosage ([2]; oral daily 48 mg (n = 3)): 0; patients with DLT, grade 1 ([2]; oral daily 48 mg (n = 3)): 0; patients with DLT, grade 2 ([2]; oral daily 48 mg (n = 3)): 0; patients with DLT, grade 3, number (%) ([2]; oral daily 48 mg (n = 3)): 0; patients with DLT, grade 4, number (%) ([2]; oral daily 48 mg (n = 3)): 0; patients with DLT, grade 5 ([2]; oral daily 48 mg (n = 3)): 0; Total number of patients with DLT at each dosage ([2]; oral daily 64 mg (n = 15)): 1; patients with DLT, grade 1 ([2]; oral daily 64 mg (n = 15)): 0; patients with DLT, grade 2 ([2]; oral daily 64 mg (n = 15)): 0; patients with DLT, grade 3, number (%) ([2]; oral daily 64 mg (n = 15)): 0; patients with DLT, grade 4, number (%) ([2]; oral daily 64 mg (n = 15)): 1 (6.7); patients with DLT, grade 5 ([2]; oral daily 64 mg (n = 15)): 0; Total number of patients with DLT at each dosage [2, 3]: 2; patients with DLT, grade 1 [2, 3]: 0; patients with DLT, grade 2 [2, 3]: 0; patients with DLT, grade 3, number (%) [2, 3]: 1 (16.7); patients with DLT, grade 4, number (%) [2, 3]: 1 (16.7); patients with DLT, grade 5 [2, 3]: 0; Total number of patients with DLT at each dosage ([2]; oral daily 96 mg (n = 6)): 1; patients with DLT, grade 1 ([2]; oral daily 96 mg (n = 6)): 0; patients with DLT, grade 2 ([2]; oral daily 96 mg (n = 6)): 0; patients with DLT, grade 3, number (%) ([2]; oral daily 96 mg (n = 6)): 1 (16.7); patients with DLT, grade 4, number (%) ([2]; oral daily 96 mg (n = 6)): 0; patients with DLT, grade 5 ([2]; oral daily 96 mg (n = 6)): 0; IC50 (TrkA): < 100 nM; IC50 (FGFR1): < 100 nM; IC50 (Tie2): < 100 nM; IC50 (Ros): < 100 nM; time-dependent inhibition of CYP1A2 (CYP1A2): time-dependent inhibitor; inhibition of P-glycoprotein (P-glycoprotein): inhibitor; inhibition of BCRP (BCRP): inhibitor; inhibition of OATP1B3 (OATP1B3): inhibitor; primary toxicities (rodents): haematopoietic effects (myeloid suppression, bone marrow hypocellularity); primary toxicities (dogs): haematopoietic effects (myeloid suppression, bone marrow hypocellularity)
